Laboratory results taken from ChEMBL document CHEMBL1287752, “Changes in flavonoid content and tyrosinase inhibitory activity in kenaf leaf extract after far-infrared treatment” (Bioorg Med Chem Lett, 2010).

What was measured:
Tyrosinase = target: T1, Tyrosinase (Agaricus bisporus, UniProt O42713); experiment: Inhibition of mushroom tyrosinase after 20 mins by spectrophotometric analysis
T1 sequence (O42713 whole entry): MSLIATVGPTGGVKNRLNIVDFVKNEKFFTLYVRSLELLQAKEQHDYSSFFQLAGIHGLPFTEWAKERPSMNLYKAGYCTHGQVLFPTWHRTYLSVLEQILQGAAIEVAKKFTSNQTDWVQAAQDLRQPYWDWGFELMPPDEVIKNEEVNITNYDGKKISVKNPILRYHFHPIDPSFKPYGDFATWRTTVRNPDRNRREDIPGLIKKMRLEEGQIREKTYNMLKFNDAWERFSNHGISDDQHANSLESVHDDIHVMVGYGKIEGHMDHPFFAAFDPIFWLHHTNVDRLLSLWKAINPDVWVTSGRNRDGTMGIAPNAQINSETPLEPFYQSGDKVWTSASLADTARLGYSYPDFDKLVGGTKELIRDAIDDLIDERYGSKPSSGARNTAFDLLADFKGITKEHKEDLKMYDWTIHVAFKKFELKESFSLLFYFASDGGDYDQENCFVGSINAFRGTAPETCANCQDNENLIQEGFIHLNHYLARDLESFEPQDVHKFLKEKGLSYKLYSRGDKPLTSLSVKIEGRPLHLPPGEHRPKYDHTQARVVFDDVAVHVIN

[1] = target: T2, Tyrosinase (Agaricus bisporus) (UniProt O42713); conditions: 400 uM
T2 sequence (whole entry): T1 sequence (O42713 whole entry)
Description: Inhibition of mushroom tyrosinase at 400 uM after 20 mins by spectrophotometric analysis

IC50 (Tyrosinase) [µM]	inhibition [1] [%]	Compound
171	–	O=c1c(O)c(-c2ccc(O)cc2)oc2cc(O)cc(O)c12 [KAEMPFEROL]
> 400	< 39.1	C[C@@H]1O[C@@H](Oc2cc(O)c3c(=O)c(O)c(-c4ccc(O)cc4)oc3c2)[C@H](O)[C@H](O)[C@H]1O [ALPHA-RHAMNOISOROBIN]
